Measurements reported in the NIST ThermoML archive (doi:10.1021/je4001894).
± gives the expanded uncertainty stated by the source.

Test: activity coefficient (dimensionless); of the first substance listed, at infinite dilution; xn = mol fraction of the nth substance listed
Conditions: 101 kPa, Liquid, Chromatography, x1 = 0

SMILES | activity coefficient (323.15 K) | activity coefficient (333.15 K) | activity coefficient (343.15 K)
Cc1ccccc1C [1,2-dimethylbenzene] + CCCC[N+]1(C)CCCC1.O=S(=O)([N-]S(=O)(=O)C(F)(F)F)C(F)(F)F | 1.61 ± 0.11 | 1.64 ± 0.11 | 1.66 ± 0.11
Cc1ccccc1C [1,2-dimethylbenzene] + CCC[N+]1(C)CCCC1.O=S(=O)([N-]S(=O)(=O)C(F)(F)F)C(F)(F)F | 1.78 ± 0.12 | 1.83 ± 0.12 | 1.87 ± 0.13
Cc1cccc(C)c1 [1,3-dimethylbenzene] + CCCC[N+]1(C)CCCC1.O=S(=O)([N-]S(=O)(=O)C(F)(F)F)C(F)(F)F | 1.78 ± 0.12 | 1.8 ± 0.12 | 1.83 ± 0.12
Cc1cccc(C)c1 [1,3-dimethylbenzene] + CCC[N+]1(C)CCCC1.O=S(=O)([N-]S(=O)(=O)C(F)(F)F)C(F)(F)F | 1.97 ± 0.13 | 1.99 ± 0.14 | 2.05 ± 0.14
Cc1ccc(C)cc1 [1,4-dimethylbenzene] + CCCC[N+]1(C)CCCC1.O=S(=O)([N-]S(=O)(=O)C(F)(F)F)C(F)(F)F | 1.78 ± 0.12 | 1.8 ± 0.12 | 1.81 ± 0.12
Cc1ccc(C)cc1 [1,4-dimethylbenzene] + CCC[N+]1(C)CCCC1.O=S(=O)([N-]S(=O)(=O)C(F)(F)F)C(F)(F)F | 1.96 ± 0.13 | 2 ± 0.14 | 2.03 ± 0.14
C1COCCO1 [1,4-dioxane] + CCCC[N+]1(C)CCCC1.O=S(=O)([N-]S(=O)(=O)C(F)(F)F)C(F)(F)F | 0.71 ± 0.05 | 0.72 ± 0.05 | 0.72 ± 0.05
C1COCCO1 [1,4-dioxane] + CCC[N+]1(C)CCCC1.O=S(=O)([N-]S(=O)(=O)C(F)(F)F)C(F)(F)F | 0.74 ± 0.05 | 0.74 ± 0.05 | 0.76 ± 0.05
C#CCCCCC [1-heptyne] + CCCC[N+]1(C)CCCC1.O=S(=O)([N-]S(=O)(=O)C(F)(F)F)C(F)(F)F | 3.98 ± 0.27 | 3.98 ± 0.27 | 3.94 ± 0.27
C#CCCCCC [1-heptyne] + CCC[N+]1(C)CCCC1.O=S(=O)([N-]S(=O)(=O)C(F)(F)F)C(F)(F)F | 4.52 ± 0.31 | 4.52 ± 0.31 | 4.51 ± 0.31
C#CCCCC [1-hexyne] + CCCC[N+]1(C)CCCC1.O=S(=O)([N-]S(=O)(=O)C(F)(F)F)C(F)(F)F | 2.89 ± 0.2 | 2.87 ± 0.2 | 2.83 ± 0.19
C#CCCCC [1-hexyne] + CCC[N+]1(C)CCCC1.O=S(=O)([N-]S(=O)(=O)C(F)(F)F)C(F)(F)F | 3.35 ± 0.23 | 3.18 ± 0.22 | 3.01 ± 0.2
CCC[N+](=O)[O-] [1-nitropropane] + CCCC[N+]1(C)CCCC1.O=S(=O)([N-]S(=O)(=O)C(F)(F)F)C(F)(F)F | 0.74 ± 0.05 | 0.73 ± 0.05 | 0.73 ± 0.05
CCC[N+](=O)[O-] [1-nitropropane] + CCC[N+]1(C)CCCC1.O=S(=O)([N-]S(=O)(=O)C(F)(F)F)C(F)(F)F | 0.77 ± 0.05 | 0.77 ± 0.05 | 0.77 ± 0.05
CC(C)CC(C)(C)C [2,2,4-trimethylpentane] + CCCC[N+]1(C)CCCC1.O=S(=O)([N-]S(=O)(=O)C(F)(F)F)C(F)(F)F | 19.2 ± 1.3 | 17.9 ± 1.2 | 17.1 ± 1.2
CC(C)CC(C)(C)C [2,2,4-trimethylpentane] + CCC[N+]1(C)CCCC1.O=S(=O)([N-]S(=O)(=O)C(F)(F)F)C(F)(F)F | 22.5 ± 1.5 | 22 ± 1.5 | 21.6 ± 1.5
CC(C)CO [2-methyl-1-propanol] + CCCC[N+]1(C)CCCC1.O=S(=O)([N-]S(=O)(=O)C(F)(F)F)C(F)(F)F | 2.37 ± 0.16 | 2.12 ± 0.14 | 1.92 ± 0.13
CC(C)CO [2-methyl-1-propanol] + CCC[N+]1(C)CCCC1.O=S(=O)([N-]S(=O)(=O)C(F)(F)F)C(F)(F)F | 2.51 ± 0.17 | 2.29 ± 0.16 | 2.1 ± 0.14
CCC(C)CC [3-methylpentane] + CCCC[N+]1(C)CCCC1.O=S(=O)([N-]S(=O)(=O)C(F)(F)F)C(F)(F)F | 12.3 ± 0.84 | 11.9 ± 0.81 | 11 ± 0.75
CCC(C)CC [3-methylpentane] + CCC[N+]1(C)CCCC1.O=S(=O)([N-]S(=O)(=O)C(F)(F)F)C(F)(F)F | 14.3 ± 0.98 | 13.5 ± 0.92 | 11.7 ± 0.8
CC#N [acetonitrile] + CCCC[N+]1(C)CCCC1.O=S(=O)([N-]S(=O)(=O)C(F)(F)F)C(F)(F)F | 0.52 ± 0.04 | 0.51 ± 0.04 | 0.5 ± 0.04
c1ccccc1 [benzene] + CCCC[N+]1(C)CCCC1.O=S(=O)([N-]S(=O)(=O)C(F)(F)F)C(F)(F)F | 0.92 ± 0.06 | 0.93 ± 0.06 | 0.94 ± 0.06
c1ccccc1 [benzene] + CCC[N+]1(C)CCCC1.O=S(=O)([N-]S(=O)(=O)C(F)(F)F)C(F)(F)F | 0.99 ± 0.06 | 1.01 ± 0.06 | 1.03 ± 0.06

SMILES | activity coefficient (323.15 K) | activity coefficient (333.15 K) | activity coefficient (343.15 K)
CCCCO [butan-1-ol] + CCCC[N+]1(C)CCCC1.O=S(=O)([N-]S(=O)(=O)C(F)(F)F)C(F)(F)F | 2.59 ± 0.18 | 2.32 ± 0.16 | 2.08 ± 0.14
CCCCO [butan-1-ol] + CCC[N+]1(C)CCCC1.O=S(=O)([N-]S(=O)(=O)C(F)(F)F)C(F)(F)F | 2.79 ± 0.19 | 2.35 ± 0.16 | 2.27 ± 0.15
CCC(C)=O [butanone] + CCCC[N+]1(C)CCCC1.O=S(=O)([N-]S(=O)(=O)C(F)(F)F)C(F)(F)F | 0.54 ± 0.04 | 0.5 ± 0.04 | 0.46 ± 0.04
CCC(C)=O [butanone] + CCC[N+]1(C)CCCC1.O=S(=O)([N-]S(=O)(=O)C(F)(F)F)C(F)(F)F | 0.57 ± 0.04 | 0.58 ± 0.04 | 0.64 ± 0.04
C1CCCCCC1 [cycloheptane] + CCCC[N+]1(C)CCCC1.O=S(=O)([N-]S(=O)(=O)C(F)(F)F)C(F)(F)F | 23.9 ± 1.6 | 32 ± 2.2 | 41.7 ± 2.9
C1CCCCCC1 [cycloheptane] + CCC[N+]1(C)CCCC1.O=S(=O)([N-]S(=O)(=O)C(F)(F)F)C(F)(F)F | 29.1 ± 2 | 43 ± 2.9 | 54.7 ± 3.8
C1CCCCC1 [cyclohexane] + CCCC[N+]1(C)CCCC1.O=S(=O)([N-]S(=O)(=O)C(F)(F)F)C(F)(F)F | 8.74 ± 0.6 | 7.96 ± 0.54 | 7.59 ± 0.52
C1CCCCC1 [cyclohexane] + CCC[N+]1(C)CCCC1.O=S(=O)([N-]S(=O)(=O)C(F)(F)F)C(F)(F)F | 10.2 ± 0.7 | 9.53 ± 0.65 | 8.53 ± 0.58
CCCCCCCCCC [decane] + CCCC[N+]1(C)CCCC1.O=S(=O)([N-]S(=O)(=O)C(F)(F)F)C(F)(F)F | 54.3 ± 3.7 | 49 ± 3.4 | 44.2 ± 3
CCCCCCCCCC [decane] + CCC[N+]1(C)CCCC1.O=S(=O)([N-]S(=O)(=O)C(F)(F)F)C(F)(F)F | 74.7 ± 5.1 | 65.7 ± 4.5 | 60 ± 4.1
ClCCl [dichloromethane] + CCCC[N+]1(C)CCCC1.O=S(=O)([N-]S(=O)(=O)C(F)(F)F)C(F)(F)F | 0.66 ± 0.05 | 0.7 ± 0.05 | 0.73 ± 0.05
ClCCl [dichloromethane] + CCC[N+]1(C)CCCC1.O=S(=O)([N-]S(=O)(=O)C(F)(F)F)C(F)(F)F | 0.66 ± 0.05 | 0.72 ± 0.05 | 0.78 ± 0.05
CCOCC [diethyl ether] + CCCC[N+]1(C)CCCC1.O=S(=O)([N-]S(=O)(=O)C(F)(F)F)C(F)(F)F | 2.53 ± 0.17 | 2.54 ± 0.17 | 2.6 ± 0.18
CCOCC [diethyl ether] + CCC[N+]1(C)CCCC1.O=S(=O)([N-]S(=O)(=O)C(F)(F)F)C(F)(F)F | 2.62 ± 0.18 | 2.7 ± 0.18 | 2.75 ± 0.19
CC(C)OC(C)C [diisopropyl ether] + CCCC[N+]1(C)CCCC1.O=S(=O)([N-]S(=O)(=O)C(F)(F)F)C(F)(F)F | 5.19 ± 0.35 | 5.28 ± 0.36 | 5.4 ± 0.37
CC(C)OC(C)C [diisopropyl ether] + CCC[N+]1(C)CCCC1.O=S(=O)([N-]S(=O)(=O)C(F)(F)F)C(F)(F)F | 5.88 ± 0.4 | 5.75 ± 0.39 | 5.53 ± 0.38
CCCCCCCCCCCC [dodecane] + CCCC[N+]1(C)CCCC1.O=S(=O)([N-]S(=O)(=O)C(F)(F)F)C(F)(F)F | 105 ± 7.2 | 93.8 ± 6.4 | 83 ± 5.7
CCO [ethanol] + CCCC[N+]1(C)CCCC1.O=S(=O)([N-]S(=O)(=O)C(F)(F)F)C(F)(F)F | 1.73 ± 0.12 | 1.57 ± 0.1 | 1.43 ± 0.09
CCO [ethanol] + CCC[N+]1(C)CCCC1.O=S(=O)([N-]S(=O)(=O)C(F)(F)F)C(F)(F)F | 1.75 ± 0.12 | 1.57 ± 0.1 | 1.49 ± 0.1
CCc1ccccc1 [ethylbenzene] + CCCC[N+]1(C)CCCC1.O=S(=O)([N-]S(=O)(=O)C(F)(F)F)C(F)(F)F | 1.83 ± 0.12 | 1.85 ± 0.12 | 1.87 ± 0.13
CCCCCCC [heptane] + CCCC[N+]1(C)CCCC1.O=S(=O)([N-]S(=O)(=O)C(F)(F)F)C(F)(F)F | 19.7 ± 1.4 | 18.4 ± 1.3 | 17.5 ± 1.2
CCCCCCC [heptane] + CCC[N+]1(C)CCCC1.O=S(=O)([N-]S(=O)(=O)C(F)(F)F)C(F)(F)F | 24 ± 1.6 | 23.1 ± 1.6 | 22.3 ± 1.5
C=CCCCC [hex-1-ene] + CCCC[N+]1(C)CCCC1.O=S(=O)([N-]S(=O)(=O)C(F)(F)F)C(F)(F)F | 7.51 ± 0.51 | 7.21 ± 0.49 | 7.12 ± 0.49
